Some test systems named below: LOX IMVI; HCC 2998; CCRF-CEM; SNB-19; HT-29; RXF 393; UO-31; HL-60; EKVX; NCI-H226; MOLT-4; SF-539; U-251; SF-268; K562; NCI-H460; TK-10; SK-MEL-2; A498; RPMI-8226.
Holding throughout (assay): NCI anticancer screen, dose series, 48 h

Molecules are shown by their SMILES.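 Each compound was tested at five concentrations against cells in 96-well plates for 48 hours. Here, GI50 denotes the concentration required for 50% inhibition of growth.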 The source made the active and inactive calls. Cut-off read from the data, not from the text of the source: active = GI50 up to about 1.1 µM and inactive = higher.

Regarding `CC12CCC(O)CC1CCC1C2CCC2(C)C(C(=O)CC(O)C(F)(F)F)CCC12` (stereo not given), the GI50 in the experiment on LOX IMVI was 7 µM (inactive); in the experiment on HCC 2998 it was 21.6 µM (inactive); with CCRF-CEM it was 25.6 µM (inactive); in the experiment on SNB-19 it was 24.9 µM (inactive); in the experiment on HT-29, 3.97 µM (inactive); with RXF 393 it was 7.87 µM (inactive). Moreover, the GI50 in the experiment with UO-31 is 3.99 µM (inactive); in the experiment on HL-60, 9.02 µM (inactive); with EKVX, 40.4 µM (inactive); in the experiment with NCI-H226, 40 µM (inactive); with MOLT-4, 9.35 µM (inactive); in the experiment on SF-539, 35.2 µM (inactive). Also, the GI50 in the experiment on U-251 was 26.2 µM (inactive); in the experiment on SF-268, 33.7 µM (inactive); with K562, 3.8 µM (inactive); with NCI-H460, 11.7 µM (inactive); in the experiment on TK-10 it was 53.7 µM (inactive); in the experiment on SK-MEL-2, 32.1 µM (inactive). In addition, the GI50 with A498 was 20.2 µM (inactive); in the experiment on RPMI-8226, 4.04 µM (inactive).

For `CCCCCCNC(=O)C1=C(C)NC(C)=C(C(=O)NCCCCCC)C1`, the GI50 is > 100 µM (inactive) in the experiment on LOX IMVI; > 100 µM (inactive) with HCC 2998; 70.3 µM (inactive) with CCRF-CEM; > 100 µM (inactive) with SNB-19; 89.3 µM (inactive) in the experiment on HT-29; > 100 µM (inactive) in the experiment with RXF 393. Besides, the GI50 in the experiment with UO-31 was 63.8 µM (inactive); with HL-60 it was 31 µM (inactive); in the experiment on EKVX, > 100 µM (inactive); in the experiment on NCI-H226 it was > 100 µM (inactive); with MOLT-4, > 100 µM (inactive); in the experiment on SF-539, > 100 µM (inactive). Further, the GI50 is > 100 µM (inactive) in the experiment with U-251; > 100 µM (inactive) in the experiment with SF-268; 65.8 µM (inactive) in the experiment with K562; > 100 µM (inactive) in the experiment with NCI-H460; > 100 µM (inactive) in the experiment on TK-10; > 100 µM (inactive) in the experiment on SK-MEL-2. Besides, the GI50 in the experiment with A498 and with RPMI-8226 was > 100 µM (inactive) each time.

For the molecule `C=C(Nc1ccc(OC)cc1OC)C(=O)Cc1cccc[n+]1[O-]`, the GI50 in the experiment on LOX IMVI, in the experiment with HCC 2998, in the experiment with CCRF-CEM, in the experiment with SNB-19, with HT-29 and in the experiment on RXF 393 was > 100 µM (inactive) throughout. Besides, the GI50 in the experiment on UO-31, in the experiment on HL-60, in the experiment with EKVX, in the experiment on NCI-H226, in the experiment with MOLT-4 and in the experiment with SF-539 was > 100 µM (inactive) each time. The GI50 in the experiment on U-251, in the experiment on SF-268, in the experiment on K562, in the experiment on NCI-H460, in the experiment on TK-10 and in the experiment on SK-MEL-2 was > 100 µM (inactive) in each case. The GI50 with A498 and in the experiment on RPMI-8226 was > 100 µM (inactive) each time.

For the molecule `CNNC(=NS(=O)(=O)c1cc(C#N)c(NNC)cc1S)NNC`, the GI50 in the experiment with LOX IMVI, with HCC 2998, in the experiment with CCRF-CEM, with SNB-19, in the experiment on HT-29 and in the experiment with RXF 393 was > 10 µM (inactive) throughout. The GI50 in the experiment with UO-31, in the experiment with HL-60, in the experiment on EKVX, with NCI-H226, in the experiment with MOLT-4 and in the experiment on SF-539 was > 10 µM (inactive) throughout. The GI50 in the experiment on U-251, with SF-268, in the experiment with K562, with NCI-H460, with TK-10 and in the experiment with SK-MEL-2 was > 10 µM (inactive) each time. Further, the GI50 in the experiment with A498 and in the experiment on RPMI-8226 was > 10 µM (inactive) throughout.

Take `CC#C[C@@]1(O)CCCC[C@@H]1O`: the GI50 with LOX IMVI, in the experiment with HCC 2998, with CCRF-CEM, with SNB-19, in the experiment on HT-29 and in the experiment with RXF 393 was > 100 µM (inactive) throughout. The GI50 with UO-31, with HL-60, in the experiment on EKVX, in the experiment on NCI-H226, with MOLT-4 and in the experiment on SF-539 was > 100 µM (inactive) in each case. In addition, the GI50 in the experiment with U-251, with SF-268, with K562, in the experiment on NCI-H460, in the experiment with TK-10 and in the experiment on SK-MEL-2 was > 100 µM (inactive) each time. Further, the GI50 in the experiment with A498 and with RPMI-8226 was > 100 µM (inactive) each time.

As for `CN(/N=C/c1cccc2cccnc12)c1ccc([N+](=O)[O-])cc1[N+](=O)[O-]`, the GI50 was 57.9 µM (inactive) in the experiment on LOX IMVI; 71 µM (inactive) in the experiment on HCC 2998; > 96.6 µM (inactive) in the experiment on CCRF-CEM; 11.3 µM (inactive) in the experiment on SNB-19; > 100 µM (inactive) in the experiment with HT-29; 17.1 µM (inactive) in the experiment with RXF 393. Besides, the GI50 in the experiment with UO-31 was 37.3 µM (inactive); in the experiment with HL-60, 40.8 µM (inactive); with EKVX it was 45.8 µM (inactive); in the experiment on NCI-H226, 24 µM (inactive); with MOLT-4 it was > 100 µM (inactive); in the experiment with SF-539 it was 11.3 µM (inactive). Also, the GI50 in the experiment on U-251 was 13.9 µM (inactive); in the experiment with SF-268, 18.5 µM (inactive); with K562, > 100 µM (inactive); in the experiment on NCI-H460 it was 46 µM (inactive); with TK-10 it was 29 µM (inactive); with SK-MEL-2, 14.9 µM (inactive). Moreover, the GI50 was 17.4 µM (inactive) with A498 and > 90.2 µM (inactive) in the experiment on RPMI-8226.

In the case of `Fc1cccc(CSc2ncnc3c2ncn3C2CCCS2)c1` (stereo not given), the GI50 was 13.2 µM (inactive) with LOX IMVI; 21.9 µM (inactive) with HCC 2998; 8.49 µM (inactive) with CCRF-CEM; 36.2 µM (inactive) with SNB-19; 15.5 µM (inactive) in the experiment with HT-29; 17.3 µM (inactive) in the experiment on RXF 393. The GI50 in the experiment with UO-31 was 12.1 µM (inactive); in the experiment with HL-60, 8.83 µM (inactive); in the experiment with EKVX, 18.7 µM (inactive); in the experiment on NCI-H226 it was 29.2 µM (inactive); in the experiment on MOLT-4 it was 3.77 µM (inactive); in the experiment with SF-539, 11.7 µM (inactive). Also, the GI50 in the experiment on U-251 was 10.5 µM (inactive); in the experiment with SF-268, 14.8 µM (inactive); with K562 it was 8.77 µM (inactive); in the experiment on NCI-H460, 4.79 µM (inactive); in the experiment with TK-10 it was 30.6 µM (inactive); with SK-MEL-2, 19.6 µM (inactive). The figures for the GI50 with A498 and in the experiment on RPMI-8226 were 17.3 µM (inactive) and 7.08 µM (inactive), respectively.

For the molecule `COc1cc2c(cc1O)CC[C@@H]1C2CC[C@@]2(C)C1CC[C@@H]2O` (stereo not given in full), the GI50 in the experiment on LOX IMVI was 2.89 µM (inactive); in the experiment with HCC 2998 it was 9.62 µM (inactive); with CCRF-CEM, 0.689 µM (active); in the experiment with SNB-19 it was 16.3 µM (inactive); in the experiment on HT-29, 21 µM (inactive); in the experiment on RXF 393 it was 6.24 µM (inactive). The GI50 with UO-31 was 6.65 µM (inactive); in the experiment on HL-60, 0.47 µM (active); in the experiment with EKVX, 6.17 µM (inactive); in the experiment on NCI-H226, 48.5 µM (inactive); in the experiment on MOLT-4, 0.532 µM (active); with SF-539, 0.807 µM (active). Besides, the GI50 in the experiment with U-251 is 1.16 µM (inactive); in the experiment with SF-268, 3.43 µM (inactive); with K562, 0.312 µM (active); in the experiment on NCI-H460 it was 1.96 µM (inactive); in the experiment on TK-10, 14 µM (inactive); in the experiment on SK-MEL-2, 1.32 µM (inactive). Further, the GI50 in the experiment on A498 is 16.7 µM (inactive); in the experiment with RPMI-8226 it was 0.57 µM (active).

For `COc1ccc(NC(=O)C(=O)NO)c(OC)c1`, the GI50 with LOX IMVI was 14.2 µM (inactive); in the experiment with HCC 2998 it was 21.4 µM (inactive); in the experiment on CCRF-CEM, 23 µM (inactive); in the experiment with SNB-19, 14.9 µM (inactive); in the experiment on HT-29, 20.7 µM (inactive); in the experiment on RXF 393 it was 15.6 µM (inactive). The GI50 in the experiment on UO-31 is 16.2 µM (inactive); with HL-60, 17.1 µM (inactive); in the experiment on EKVX it was 14.9 µM (inactive); in the experiment with NCI-H226, 22.3 µM (inactive); in the experiment on MOLT-4, 11.9 µM (inactive); with SF-539, 20.9 µM (inactive). In addition, the GI50 in the experiment with U-251 was 16.7 µM (inactive); in the experiment on SF-268, 16.9 µM (inactive); in the experiment with K562 it was 19.8 µM (inactive); with NCI-H460, 16 µM (inactive); with TK-10, 22.4 µM (inactive); in the experiment on SK-MEL-2, 16.1 µM (inactive). Besides, the values for the GI50 with A498 and in the experiment with RPMI-8226 were 21.5 µM (inactive) and 15.1 µM (inactive), respectively.

Take `COc1ccc(-c2cc(=O)c3c(OC)c(O)c(OC)cc3o2)cc1`: the GI50 is 36.9 µM (inactive) in the experiment with LOX IMVI; 47 µM (inactive) in the experiment with HCC 2998; 38.4 µM (inactive) with CCRF-CEM; 58.7 µM (inactive) in the experiment on SNB-19; 35.5 µM (inactive) with HT-29; 36.6 µM (inactive) in the experiment with RXF 393. Besides, the GI50 in the experiment on UO-31 was 30.7 µM (inactive); in the experiment with HL-60 it was 52 µM (inactive); in the experiment with EKVX it was 50.8 µM (inactive); with NCI-H226, 70 µM (inactive); with MOLT-4, 59.3 µM (inactive); in the experiment with SF-539, 77.4 µM (inactive). Further, the GI50 in the experiment with U-251 is 63.1 µM (inactive); in the experiment on SF-268 it was 91.4 µM (inactive); in the experiment with K562 it was 52.4 µM (inactive); with NCI-H460 it was 32.8 µM (inactive); in the experiment with TK-10 it was 28.3 µM (inactive); in the experiment with SK-MEL-2 it was 57.1 µM (inactive). The GI50 in the experiment with A498 is 30 µM (inactive); with RPMI-8226, 27.8 µM (inactive).

(Values after ChEMBL document CHEMBL1201862, “PubChem BioAssay data set” (2004).)
